Measurements published in the supplement of paper PMC10733146.

Legend:
Test in all cases: viability relative to DMSO control (fraction); higher = less drug effect (more viable cells)
Conditions in all cases: 48 h
[1] = tested on: primary FL patient cells (S022)
Procedure, shortened: (§1)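 In 384-well plates with compounds pre-plated at five concentrations (one well per concentration), primary mononuclear tumour cells were plated at 4 × 10^4 cells per well. The cells came from blood or bone marrow by Ficoll isolation or from processed lymph node, and were used fresh or cryopreserved. Culture ran for 48 h at 37 °C and 5% CO2 in RPMI-1640 containing penicillin/streptomycin, L-glutamine and human serum. Viability was read as CellTiter-Glo luminescence, normalised to the median of 16 inner DMSO wells.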

[2] = tested on: primary FL patient cells (S087)
Procedure, shortened: as §1

[3] = tested on: primary AML patient cells (S056)
Procedure, shortened: as §1

[4] = tested on: primary MCL patient cells (S063)
Procedure, shortened: as §1

[5] = tested on: primary AML patient cells (S085)
Procedure, shortened: as §1

[6] = tested on: primary CLL patient cells (S031)
Procedure, shortened: as §1

[7] = tested on: primary MCL patient cells (S041)
Procedure, shortened: as §1

[8] = tested on: primary AML patient cells (S079)
Procedure, shortened: as §1

[9] = tested on: primary ALL patient cells (S088)
Procedure, shortened: as §1

[10] = tested on: primary AML patient cells (S006)
Procedure, shortened: as §1

[11] = tested on: primary ALL patient cells (S048)
Procedure, shortened: as §1

[12] = tested on: primary AML patient cells (S011)
Procedure, shortened: as §1

[13] = tested on: primary AML patient cells (S019)
Procedure, shortened: as §1

[14] = tested on: primary AML patient cells (S012)
Procedure, shortened: as §1

SMILES: CC(C)C[C@H](NC(=O)CNC(=O)c1cc(Cl)ccc1Cl)B(O)O [Ixazomib]
- viability ([1]; 0.008 µM): 0.894
- viability ([1]; 0.04 µM): 1
- viability ([1]; 0.2 µM): 0.954
- viability ([1]; 1 µM): 0.999
- viability ([1]; 5 µM): 0.979
- viability ([2]; 0.008 µM): 0.91
- viability ([2]; 0.04 µM): 0.975
- viability ([2]; 0.2 µM): 0.978
- viability ([2]; 1 µM): 0.96
- viability ([2]; 5 µM): 0.982
- viability ([3]; 0.008 µM): 0.755
- viability ([3]; 0.04 µM): 0.894
- viability ([3]; 0.2 µM): 1.11
- viability ([3]; 1 µM): 0.9
- viability ([3]; 5 µM): 0.893
- viability ([4]; 0.008 µM): 0.919
- viability ([4]; 0.04 µM): 1.02
- viability ([4]; 0.2 µM): 0.921
- viability ([4]; 1 µM): 0.993
- viability ([4]; 5 µM): 0.953
- viability ([5]; 0.008 µM): 0.842
- viability ([5]; 0.04 µM): 0.977
- viability ([5]; 0.2 µM): 0.807
- viability ([5]; 1 µM): 0.911
- viability ([5]; 5 µM): 1.08
- viability ([6]; 0.008 µM): 0.876
- viability ([6]; 0.04 µM): 1.04
- viability ([6]; 0.2 µM): 1.01
- viability ([6]; 1 µM): 1.05
- viability ([6]; 5 µM): 1.02
- viability ([7]; 0.008 µM): 0.87
- viability ([7]; 0.04 µM): 0.97
- viability ([7]; 0.2 µM): 0.934
- viability ([7]; 1 µM): 1.04
- viability ([7]; 5 µM): 1.05
- viability ([8]; 0.008 µM): 0.988
- viability ([8]; 0.04 µM): 0.914
- viability ([8]; 0.2 µM): 0.888
- viability ([8]; 1 µM): 1
- viability ([8]; 5 µM): 1.02
- viability ([9]; 0.008 µM): 0.741
- viability ([9]; 0.04 µM): 0.839
- viability ([9]; 0.2 µM): 0.793
- viability ([9]; 1 µM): 0.851
- viability ([9]; 5 µM): 0.996
- viability ([10]; 0.008 µM): 0.929
- viability ([10]; 0.04 µM): 1
- viability ([10]; 0.2 µM): 0.924
- viability ([10]; 1 µM): 1.04
- viability ([10]; 5 µM): 1.01
- viability ([11]; 0.008 µM): 1.04
- viability ([11]; 0.04 µM): 0.94
- viability ([11]; 0.2 µM): 0.961
- viability ([11]; 1 µM): 0.994
- viability ([11]; 5 µM): 1.05
- viability ([12]; 0.008 µM): 0.957
- viability ([12]; 0.04 µM): 1.15
- viability ([12]; 0.2 µM): 0.891
- viability ([12]; 1 µM): 1.06
- viability ([12]; 5 µM): 1.03
- viability ([13]; 0.008 µM): 0.525
- viability ([13]; 0.04 µM): 0.757
- viability ([13]; 0.2 µM): 0.633
- viability ([13]; 1 µM): 0.786
- viability ([13]; 5 µM): 0.936
- viability ([14]; 0.008 µM): 0.975
- viability ([14]; 0.04 µM): 0.971
- viability ([14]; 0.2 µM): 1.1
- viability ([14]; 1 µM): 1.01
- viability ([14]; 5 µM): 0.978
